Several values for one entry are separate records, joined by “and”; a condition that tells them apart may be missing. Identical values can stand only once. After the bases stand the sugars from the 5' end (letter, count) and the backbone: PS all phosphorothioate, else s phosphorothioate and o phosphodiester by linkage. Methylation of C is not given here. e = 2'-O-(2-methoxyethyl) (MOE); k = constrained ethyl (cEt); d = 2'-deoxy (DNA)

One series has as its target IRF4. The settings on record: ASO, MM.1R, 0.0625 µM.
As to ACTGGATTGATGTGAT (sugars k3 d10 k3, PS), the target mRNA inhibition is 2% and 9%.

Still in this series, the particulars now being: ASO, MM.1R, 0.074 µM.
For the sequence “GAAGTTTACACTGGAT (sugars kkdddddddddekeke, PS)”, the target mRNA inhibition was found to be 14%.

The same series, now with this note: ASO, MM.1R, 0.222 µM.
In the case of “GAAGTTTACACTGGAT (sugars kkdddddddddekeke, PS)”, the target mRNA inhibition stood at 26%.

The series is the same for the next values; noted with them: ASO, MM.1R, 0.25 µM.
On to ACTGGATTGATGTGAT (sugars k3 d10 k3, PS), for which the target mRNA inhibition was 6% and 20%.

The same series, now with this note: ASO, MM.1R, 0.666 µM.
In the case of “GAAGTTTACACTGGAT (sugars kkdddddddddekeke, PS)”, the target mRNA inhibition came out at 50%.

Still in this series, the particulars now being: ASO, MM.1R, 1 µM.
As for “GTGATAGCTGAGCTGA (sugars k2 d9 e3 k2, PS)”, the target mRNA inhibition came to 13%.

As for TCTAACAGATAACGAG (sugars k3 d10 k3, PS), the target mRNA inhibition was -3%.

Take CCTATAACTTCTCCTG (sugars k3 d10 k3, PS): the target mRNA inhibition was -7%.

As for CCCGACCCTCCCCAAC (sugars k3 d10 k3, PS), the target mRNA inhibition is -35%.

Consider “AATGTGTATTACTCTT (sugars kkdddddddddkekek, PS)”, for which the target mRNA inhibition was 52% and 41%.

TGCTCACTAAGCTTGA (sugars k3 d10 k3, PS): the target mRNA inhibition is 12%.

“TTATATACTGGTTGGT (sugars kdddddddddkekeke, PS)”: the target mRNA inhibition came to 20%.

With “TTTATGTTAGCCAATT (sugars kkdddddddddekeke, PS)”, the target mRNA inhibition was 12% and -13%.

For the sequence “GGTTGGCTGGTCTTTG (sugars kddddddddddkekek, PS)”, the target mRNA inhibition worked out at 47%.

As to TGATGTGATAGCTGAG (sugars k3 d10 k3, PS), the target mRNA inhibition is 59%.

“AAGCAGTGATGTCAGG (sugars kddddddddddkekek, PS)”: the target mRNA inhibition was 28% and 39%.

As to TCATGTAAAGTCTGCT (sugars k3 d10 k3, PS), the target mRNA inhibition came to 21%.

On to TTAGGCACATCAATGT (sugars k3 d10 k3, PS), for which the target mRNA inhibition is 12% and 17%.

Take GGTATTTATAACCGGT (sugars k3 d10 k3, PS): the target mRNA inhibition was found to be 10%.

With TCCTGTAACGCACCCG (sugars k3 d10 k3, PS), the target mRNA inhibition is -13%.

TATCATCCGAAAAGAC (sugars k3 d10 k3, PS): the target mRNA inhibition was determined as 3%.

Turning to ACGGAGGCGGCAGACG (sugars k3 d10 k3, PS), the target mRNA inhibition was -9%.

With “TAGTATGAGAAACGGC (sugars kkdddddddddkekek, PS)”, the target mRNA inhibition was found to be 27%.

On to AGCAGTAAACGCAAGT (sugars k3 d10 k3, PS), for which the target mRNA inhibition was 27%.

Regarding “TGTGCTTGCCAAGCCT (sugars kkdddddddddekeke, PS)”, the target mRNA inhibition is 21% and 1%.

Take CAGATTGAATCCATAT (sugars k3 d10 k3, PS): the target mRNA inhibition was determined as 20%.

In the case of “ACACTTTTAGAGAGGA (sugars kkdddddddddkdkdk, PS)”, the target mRNA inhibition turned out to be 3%.

TAGGACTAAGGACAGC (sugars k3 d10 k3, PS): the target mRNA inhibition was -5%.

For CTTGGCAGGGAGCGGC (sugars k3 d10 k3, PS), the target mRNA inhibition stood at 25%.

With “GAAGTTTACACTGGAT (sugars kkdddddddddekeke, PS)”, the target mRNA inhibition was determined as 58%.

As for ACTGCCGTGATCTGAG (sugars k3 d10 k3, PS), the target mRNA inhibition was 34% and 29%.

Turning to ACTGGATTGATGTGAT (sugars k3 d10 k3, PS), the target mRNA inhibition is 25% and 39%.

As for TGGCGAGTGGCGGGTA (sugars k3 d10 k3, PS), the target mRNA inhibition was -18%.

Consider “CGTGTGCTTGCCAAGC (sugars kkdddddddddkdkdk, PS)”, for which the target mRNA inhibition was 67% and 53%.

Still in this series, the particulars now being: ASO, MM.1R, 2 µM.
Turning to “GAAGTTTACACTGGAT (sugars kkdddddddddekeke, PS)”, the target mRNA inhibition worked out at 59%.

The series is the same for the next values; noted with them: ASO, MM.1R, 4 µM.
Take ACTGGATTGATGTGAT (sugars k3 d10 k3, PS): the target mRNA inhibition was 65% and 69%.

Staying with this series, now noted: ASO, SK-MEL-28, 4 µM.
As to TTCAAGAGGAACTAGT (sugars k3 d10 k3, PS), the target mRNA inhibition was 6%.

Take CAGCATATTACAAACG (sugars k3 d10 k3, PS): the target mRNA inhibition stood at 58%.

Turning to AGGACAATGGAGATAC (sugars k3 d10 k3, PS), the target mRNA inhibition is 72%.

Consider TGCCGCTGTCGATCTG (sugars k3 d10 k3, PS), for which the target mRNA inhibition amounted to 32%.

CAGAATGAAGTTAAGG (sugars k3 d10 k3, PS): the target mRNA inhibition stood at 50%.

With TCAAATCTTCAACAGC (sugars k3 d10 k3, PS), the target mRNA inhibition amounted to 76%.

Consider AAGTACTTGGACAGAA (sugars k3 d10 k3, PS), for which the target mRNA inhibition was determined as 54%.

On to CCCACACCAGCCCGGG (sugars k4 d8 k4, PS), for which the target mRNA inhibition was -6%.

Turning to GGGCATGTAAAACATA (sugars k3 d10 k3, PS), the target mRNA inhibition is 23%.

GAACAAAAGGTTCCCG (sugars k3 d10 k3, PS): the target mRNA inhibition turned out to be 18%.

For TAACAAGTTATCCAGT (sugars k3 d10 k3, PS), the target mRNA inhibition was found to be 12%.

Turning to GCATAGCATTATCTAC (sugars k3 d10 k3, PS), the target mRNA inhibition was 51%.

Turning to AGCTGATGGAGAAACG (sugars k3 d10 k3, PS), the target mRNA inhibition was 10%.

As for TCCAGGAAAGGCCAAG (sugars k3 d10 k3, PS), the target mRNA inhibition was 49%.

Turning to TTACCATTTTCACAAG (sugars k3 d10 k3, PS), the target mRNA inhibition was 8%.

Regarding GTTAAAGCAGCATAAT (sugars k3 d10 k3, PS), the target mRNA inhibition worked out at 27%.

CTTTATCAAGACAAGG (sugars k3 d10 k3, PS): the target mRNA inhibition came to 56%.

Take GCCATTGTCCTCTGGG (sugars k3 d10 k3, PS): the target mRNA inhibition came out at 25%.

As to TACTAACTGGCTTCCA (sugars k3 d10 k3, PS), the target mRNA inhibition came to 28%.

Take GGCACGGCTTCAGTCA (sugars k3 d10 k3, PS): the target mRNA inhibition is 75%.

For CTTATTAGACTGACAG (sugars k3 d10 k3, PS), the target mRNA inhibition amounted to 41%.

In the case of TAGAAGCCCACAAGAA (sugars k3 d10 k3, PS), the target mRNA inhibition stood at 1%.

For TCCCTTAGGATAATAT (sugars k3 d10 k3, PS), the target mRNA inhibition was 48%.

Consider AGCCGCTACAGCTTCT (sugars k3 d10 k3, PS), for which the target mRNA inhibition was -8%.

Consider AGGCACTTACTAGGTG (sugars k3 d10 k3, PS), for which the target mRNA inhibition was 54%.

Regarding TAACAATACTGTAAGG (sugars k3 d10 k3, PS), the target mRNA inhibition was determined as 45%.

AAGGAGGCGGGCCTTG (sugars k3 d10 k3, PS): the target mRNA inhibition was found to be 2%.

With AAAGAGCGCATTTCAG (sugars k3 d10 k3, PS), the target mRNA inhibition was 6%.

Consider CGTATGTCCATGGGAG (sugars k3 d10 k3, PS), for which the target mRNA inhibition was found to be 88%.

Consider TAGGTCATACCCTGGA (sugars k3 d10 k3, PS), for which the target mRNA inhibition is 72%.

For the sequence ACATATCCATGTTGCA (sugars k3 d10 k3, PS), the target mRNA inhibition came to 79%.

In the case of GTCTGGCTAGCAGAGG (sugars k4 d8 k4, PS), the target mRNA inhibition was found to be 9%.

As to ATAACCGGTAGAGTGA (sugars k3 d10 k3, PS), the target mRNA inhibition is 50%.

Turning to AATAAGCAGAAACAGC (sugars k4 d8 k4, PS), the target mRNA inhibition was 39%.

Regarding CTTAAGCAAGTGGAGG (sugars k3 d10 k3, PS), the target mRNA inhibition is 70%.

Take AGAAACCCTCATCACC (sugars k3 d10 k3, PS): the target mRNA inhibition is -5%.

For the origin of these results see the OligoGym collection.
